# From patent US8940896B2, “Tetra-cyclic carboline derivatives useful in the inhibition of angiogenesis” (PTC Therapeutics, Inc., priority 2004, dated 2015)
# Tested on: VEGF
# Test: Hypoxia-inducible endogenous VEGF expression, VEGF ELISA assay
# Format: cell-based
# Conditions: HeLa cells, hypoxic conditions (1% O2, 5% CO2), VEGF in conditioned media
# Procedure: The ability of the compounds of the invention to modulate hypoxia-inducible endogenous VEGF expression may be analyzed as follows. VEGF protein levels may be monitored by an ELISA assay (R&D Systems). Briefly, HeLa cells may be cultured for 24-48 hours under hypoxic conditions (1% O2, 5% CO2, balanced with nitrogen) in the presence or absence of a compound of the invention. The conditioned media may then be assayed by ELISA, and the concentration of VEGF calculated from the standard ELISA curve of each assay.
# A dose-response analysis may be performed using the ELISA assay and conditions described above. The conditions for the dose-response ELISA are analogous to those described above. A series of, e.g., seven different concentrations may be analyzed. In parallel, a dose-response cytotoxicity assay may be performed using CellTiter Glo (Promega) under the same conditions as the ELISA to ensure that the inhibition of VEGF expression was not due to the cytotoxicity. Dose-response curves may be plotted using percentage inhibition versus concentration of the compound, and EC50 and CC50 values may be generated for each compound with the maximal inhibition set as 100% and the minimal inhibition as 0%.
Compound,"EC50 (Homo sapiens, HeLa)",EC50
COc1ccc(C2c3[nH]c4ccc(Br)cc4c3CC3C(=O)N(CC4CCCO4)C(=S)N32)cc1 (stereo not shown) [Compound 143],8 to 40 nM,–
CC(C)N1C(=O)C2Cc3c([nH]c4ccccc34)C(c3cccc(Cl)c3)N2C1=S (stereo not shown) [Compound 68],> 1000 nM,–
COc1ccc(C2c3[nH]c4ccccc4c3CC3C(=O)N(c4cccc(F)c4)C(=S)N32)cc1 (stereo not shown) [Compound 43],200 to 1000 nM,–
CCN1C(=O)C2Cc3c([nH]c4ccccc34)C(c3cc(OC)c(OC)c(OC)c3)N2C1=S (stereo not shown) [Compound 64],> 1000 nM,–
COc1ccc(C2c3[nH]c4ccc(Br)cc4c3CC3C(=O)N(C4CCCCC4)C(=S)N32)cc1 (stereo not shown) [Compound 27],–,< 8 nM
CC(C)N1C(=O)C2Cc3c([nH]c4ccc(Cl)cc34)C(c3ccc(-c4cncnc4)cc3)N2C1=S (stereo not shown) [Compound 135],40 to 200 nM,–
O=C1C2Cc3c([nH]c4ccc(Br)cc34)C(C3CCCCC3)N2C(=S)N1C1CCCC1 (stereo not shown) [Compound 19],8 to 40 nM,–
COc1ccc(C2c3[nH]c4ccc(Br)cc4c3CC3C(=O)N(c4cccc(C#N)c4)C(=S)N32)cc1 (stereo not shown) [Compound 146],< 8 nM,–
COc1cccc(C2c3[nH]c4ccc(Br)cc4c3CC3C(=O)N(C4CC4)C(=S)N32)c1 (stereo not shown) [Compound 16],–,< 8 nM
CCOC(=O)CN1C(=O)C2Cc3c([nH]c4ccc(Br)cc34)C(c3ccc(OC)cc3)N2C1=S (stereo not shown) [Compound 137],8 to 40 nM,–
O=C1C2Cc3c([nH]c4ccc(Br)cc34)C(c3ccc(F)cc3)N2C(=S)N1C1CCCCC1 (stereo not shown) [Compound 10],8 to 40 nM,–
COc1ccc(C2c3[nH]c4ccc(Br)cc4c3CC3C(=O)N(c4ccc([N+](=O)[O-])cc4)C(=S)N32)cc1 (stereo not shown) [Compound 176],< 8 nM,–
COc1ccc(C2c3[nH]c4ccccc4c3CC3C(=O)N(c4ccccc4C(C)C)C(=S)N32)cc1 (stereo not shown) [Compound 74],> 1000 nM,–
COc1ccc(C2c3[nH]c4ccc(Br)cc4c3CC3C(=O)N(CCc4ccccc4)C(=S)N32)cc1 (stereo not shown) [Compound 181],< 8 nM,–
O=C1C2Cc3c([nH]c4ccccc34)C(C3CCCCC3)N2C(=S)N1C1CC1 (stereo not shown) [Compound 5],–,> 1000 nM
COc1ccc(C2c3[nH]c4ccc(Br)cc4c3CC3C(=O)N(c4cccnc4)C(=S)N32)cc1 (stereo not shown) [Compound 99],< 8 nM,–
O=C1C2Cc3c([nH]c4ccc(Br)cc34)C(c3ccc(OCCCN4CCSCC4)cc3)N2C(=S)N1c1ccc(Cl)cc1 (stereo not shown) [Compound 196],< 8 nM,–
O=C1C2Cc3c([nH]c4ccc(Br)cc34)C(c3ccc(OCCCN4CCCCC4)cc3)N2C(=S)N1c1ccc(Cl)cc1 (stereo not shown) [Compound 190],8 to 40 nM,–
COc1ccc(C2c3[nH]c4ccccc4c3CC3C(=O)N(C(C)C)C(=S)N32)cc1 (stereo not shown) [Compound 42],200 to 1000 nM,–
O=C1C2Cc3c([nH]c4ccc(Br)cc34)C(c3ccc(OCCCCl)cc3)N2C(=S)N1c1ccc(Cl)cc1 (stereo not shown) [Compound 188],< 8 nM,–
COc1ccccc1C1c2[nH]c3ccccc3c2CC2C(=O)N(C3CCCCC3)C(=S)N21 (stereo not shown) [Compound 87],> 1000 nM,–
COc1ccc(C2c3[nH]c4ccc(C)cc4c3CC3C(=O)N(C4CCCCC4)C(=O)N32)cc1 (stereo not shown) [Compound 45],200 to 1000 nM,–
CC(C)N1C(=O)C2Cc3c([nH]c4ccc(Cl)cc34)C(c3ccc(N4CCN(C)CC4)cc3)N2C1=O (stereo not shown) [Compound 124],40 to 200 nM,–

Compound,"EC50 (Homo sapiens, HeLa)",EC50
COc1ccc(C2c3[nH]c4ccc(C)cc4c3CC3C(=O)N(C4CCCCC4)C(=S)N32)cc1 (stereo not shown) [Compound 23],8 to 40 nM,–
COc1ccc(C2c3[nH]c4ccccc4c3CC3C(=O)N(c4ccccc4)C(=O)N32)cc1 (stereo not shown) [Compound 50],> 1000 nM,–
COc1ccc(C2c3[nH]c4ccc(Br)cc4c3CC3C(=O)N(c4cccc(Br)c4)C(=S)N32)cc1 (stereo not shown) [Compound 175],< 8 nM,–
CC(C)N1C(=O)C2Cc3c([nH]c4ccc(Br)cc34)C(c3ccc(OCCCn4ccnc4)cc3)N2C1=S (stereo not shown) [Compound 160],8 to 40 nM,–
CN1C(=O)C2Cc3c([nH]c4ccccc34)C(c3cccc(Cl)c3Cl)N2C1=S (stereo not shown) [Compound 75],> 1000 nM,–
COc1ccc(C2c3[nH]c4ccc(Br)cc4c3CC3C(=O)N(C(=O)c4ccccc4)C(=S)N32)cc1 (stereo not shown) [Compound 178],40 to 200 nM,–
COc1ccc(C2c3[nH]c4ccc(Br)cc4c3CC3C(=O)N(c4ccc(F)cc4Cl)C(=S)N32)cc1 (stereo not shown) [Compound 174],40 to 200 nM,–
CC(C)N1C(=O)C2Cc3c([nH]c4ccc(Br)cc34)C(c3ccc(N4CCOCC4)cc3)N2C1=S (stereo not shown) [Compound 127],< 8 nM,–
CC(C)N1C(=O)C2Cc3c([nH]c4ccc(Cl)cc34)C(c3ccc(-n4ccnc4)cc3)N2C1=O (stereo not shown) [Compound 123],200 to 1000 nM,–
COc1ccc(C2c3[nH]c4ccc(Br)cc4c3CC3C(=O)N(c4cccc(F)c4)C(=S)N32)cc1 (stereo not shown) [Compound 167],< 8 nM,–
COc1ccc(C2c3[nH]c4ccc(Br)cc4c3CC3C(=O)N(c4ccc5c(c4)OCO5)C(=S)N32)cc1 (stereo not shown) [Compound 179],< 8 nM,–
CCN(CC)CCCOc1ccc(C2c3[nH]c4ccc(Br)cc4c3CC3C(=O)N(C(C)C)C(=S)N32)cc1 (stereo not shown) [Compound 154],< 8 nM,–
O=C1C2Cc3c([nH]c4ccc(Br)cc34)C(c3ccc4c(c3)OCO4)N2C(=O)N1C1CCCCC1 (stereo not shown) [Compound 29],8 to 40 nM,–
O=C1C2Cc3c([nH]c4ccc(Br)cc34)C(c3ccc(OCCCn4ccnc4)cc3)N2C(=S)N1c1ccc(Cl)cc1 (stereo not shown) [Compound 199],< 8 nM,–
COc1ccc(C2c3[nH]c4ccc(Br)cc4c3CC3C(=O)N(c4ccc(F)cc4F)C(=S)N32)cc1 (stereo not shown) [Compound 172],< 8 nM,–
CC(C)N1C(=O)C2Cc3c([nH]c4ccc(Cl)cc34)C(c3ccc(-c4cncnc4)cc3)N2C1=O (stereo not shown) [Compound 126],200 to 1000 nM,–
COCCOc1ccc(C2c3[nH]c4ccc(Cl)cc4c3CC3C(=O)N(C4CCCC4)C(=S)N32)cc1 (stereo not shown) [Compound 109],8 to 40 nM,–
COc1ccc(C2c3[nH]c4ccc(Br)cc4c3CC3C(=O)N(c4cccc(C(F)(F)F)c4)C(=S)N32)cc1 (stereo not shown) [Compound 162],< 8 nM,–
CCOCN(C)CCCOc1ccc(C2c3[nH]c4ccc(Br)cc4c3CC3C(=O)N(c4ccc(Cl)cc4)C(=S)N32)cc1 (stereo not shown) [Compound 197],8 to 40 nM,–
CCN1C(=O)C2Cc3c([nH]c4ccccc34)C(c3ccc(OC)cc3)N2C1=O (stereo not shown) [Compound 66],> 1000 nM,–
CC(C)N1C(=O)C2Cc3c([nH]c4ccc(Br)cc34)C(c3ccc(OCCCN4CCSCC4)cc3)N2C1=S (stereo not shown) [Compound 157],40 to 200 nM,–
Cc1ccccc1N1C(=O)C2Cc3c([nH]c4ccccc34)C(c3cccc(Cl)c3)N2C1=S (stereo not shown) [Compound 37],> 1000 nM,–
COc1ccc(C2c3[nH]c4ccc(Br)cc4c3CC3C(=O)N(c4ccccc4C)C(=S)N32)cc1 (stereo not shown) [Compound 169],40 to 200 nM,–

Compound,"EC50 (Homo sapiens, HeLa)",EC50
COCCOc1ccc([C@@H]2c3[nH]c4ccc(Br)cc4c3C[C@H]3C(=O)N(C4CCCCC4)C(=S)N23)cc1 [Compound 148],200 to 1000 nM,–
COc1ccccc1C1c2[nH]c3ccccc3c2CC2C(=O)N(c3ccccc3)C(=S)N21 (stereo not shown) [Compound 88],> 1000 nM,–
COCCOc1ccc(C2c3[nH]c4ccc(Cl)cc4c3CC3C(=O)N(C(C)C)C(=S)N32)cc1 (stereo not shown) [Compound 108],8 to 40 nM,–
CCOC(=O)C(C)N1C(=O)C2Cc3c([nH]c4ccc(Br)cc34)C(c3ccc(OC)cc3)N2C1=S (stereo not shown) [Compound 144],8 to 40 nM,–
O=C1C2Cc3c([nH]c4ccccc34)C(c3ccccc3)N2C(=O)N1C1CCCCC1 (stereo not shown) [Compound 72],> 1000 nM,–
COc1cc(C2c3[nH]c4ccccc4c3CC3C(=O)N(C)C(=S)N32)cc(OC)c1O (stereo not shown) [Compound 71],> 1000 nM,–
CC(C)N1C(=O)C2Cc3c([nH]c4ccc(Cl)cc34)C(c3ccc(N4CCN(C)CC4)cc3)N2C1=S (stereo not shown) [Compound 133],40 to 200 nM,–
CC(C)N1C(=O)C2Cc3c([nH]c4ccc(Br)cc34)C(c3ccc(-c4cncnc4)cc3)N2C1=S (stereo not shown) [Compound 131],8 to 40 nM,–
O=C1C2Cc3c([nH]c4ccc(Br)cc34)C(c3ccc(OCCCn4ccnn4)cc3)N2C(=S)N1c1ccc(Cl)cc1 (stereo not shown) [Compound 149],< 8 nM,–
CC(C)N1C(=O)C2Cc3c([nH]c4ccc(Cl)cc34)C(c3ccc(-c4ccncc4)cc3)N2C1=O (stereo not shown) [Compound 125],200 to 1000 nM,–
COc1ccccc1C1c2[nH]c3ccccc3c2CC2C(=O)N(C(C)C)C(=S)N21 (stereo not shown) [Compound 86],> 1000 nM,–
O=C1C2Cc3c([nH]c4ccccc34)C(c3cccc(Cl)c3)N2C(=S)N1c1cccc(F)c1 (stereo not shown) [Compound 39],200 to 1000 nM,–
O=C1C2Cc3c([nH]c4ccc(Br)cc34)C(C3CCCCC3)N2C(=S)N1C1CC1 (stereo not shown) [Compound 15],200 to 1000 nM,–
C=CCN1C(=O)C2Cc3c([nH]c4ccccc34)C(c3ccc(O)cc3)N2C1=S (stereo not shown) [Compound 77],> 1000 nM,–
COc1ccc(C2c3[nH]c4ccc(Br)cc4c3CC3C(=O)N(C4CCCCC4)C(=S)N32)cc1 (stereo not shown) [Compound 186],–,< 8 nM
COc1ccc(C2c3[nH]c4ccc(Br)cc4c3CC3C(=O)N(C4CC4)C(=S)N32)cc1 (stereo not shown) [Compound 17],< 8 nM,–
CCC(C)N1C(=O)C2Cc3c([nH]c4ccc(Br)cc34)C(c3ccc(C(C)C)cc3)N2C1=S (stereo not shown) [Compound 95],< 8 nM,–
O=C1C2Cc3c([nH]c4ccccc34)C(c3ccc4c(c3)OCO4)N2C(=S)N1C1CCCCC1 (stereo not shown) [Compound 3],> 1000 nM,–
COCCOc1ccc(C2c3[nH]c4ccc(Cl)cc4c3CC3C(=O)N(C4CCCCC4)C(=S)N32)cc1 (stereo not shown) [Compound 116],< 8 nM,–
COCCOc1ccc(C2c3[nH]c4ccc(Cl)cc4c3CC3C(=O)N(C)C(=S)N32)cc1 (stereo not shown) [Compound 107],< 8 nM,–
COc1ccc(C2c3[nH]c4ccc(Br)cc4c3CC3C(=O)N(c4ccc(Cl)cc4)C(=S)N32)cc1 (stereo not shown) [Compound 138],< 8 nM,–
